Series [1] can be described thus: Metabolic stability assay. It is filed as in vitro ADME. The settings on record: percentage metabolic stability in human liver microsomes. The protocol: The metabolic stability assay was performed in Wuxi. 1 μM, 15 min. The kinase selectivity testing was performed in ProQinase GmbH, Germany.
(Liver microsomes are vesicles of endoplasmic reticulum, rich in cytochrome P450 enzymes.)

The target of the next series is T1, PIM-1 (Homo sapiens, UniProt P11309).
T1 construct: histidine tag (C); made in house
In words: PIM-1 biochemical assay (ADP Hunter).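 Also: recombinant human PIM-1 carrying a C-terminal His tag, kinase activity quantified via ADP formed as the direct enzymatic product.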 As to conditions: read-out: PIM1 IC50.

Another series has as its target T2, PIM-2 (Homo sapiens, UniProt Q9P1W9).
T2 construct: histidine tag (N); made in house
In words: PIM-2 biochemical assay (ADP Hunter).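 Also: recombinant N-terminally His-tagged human enzyme, kinase activity quantified by detection of ADP formed as the direct reaction product.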 The settings on record: semi-quantitative class; read-out: PIM2 IC50.

For a further series, the target named is T3, PIM-3 (Homo sapiens, UniProt Q86V86).
T3 construct: purchased Millipore 14-738
In words: PIM-3 biochemical assay (ADP Hunter).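 Also: kinase activity read out as the quantity of ADP generated by the enzyme reaction.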 The settings on record: read-out: PIM3 IC50.

In the next series the target is T4, FLT3 (Homo sapiens, UniProt P36888).
T4 sequence (P36888 27-993): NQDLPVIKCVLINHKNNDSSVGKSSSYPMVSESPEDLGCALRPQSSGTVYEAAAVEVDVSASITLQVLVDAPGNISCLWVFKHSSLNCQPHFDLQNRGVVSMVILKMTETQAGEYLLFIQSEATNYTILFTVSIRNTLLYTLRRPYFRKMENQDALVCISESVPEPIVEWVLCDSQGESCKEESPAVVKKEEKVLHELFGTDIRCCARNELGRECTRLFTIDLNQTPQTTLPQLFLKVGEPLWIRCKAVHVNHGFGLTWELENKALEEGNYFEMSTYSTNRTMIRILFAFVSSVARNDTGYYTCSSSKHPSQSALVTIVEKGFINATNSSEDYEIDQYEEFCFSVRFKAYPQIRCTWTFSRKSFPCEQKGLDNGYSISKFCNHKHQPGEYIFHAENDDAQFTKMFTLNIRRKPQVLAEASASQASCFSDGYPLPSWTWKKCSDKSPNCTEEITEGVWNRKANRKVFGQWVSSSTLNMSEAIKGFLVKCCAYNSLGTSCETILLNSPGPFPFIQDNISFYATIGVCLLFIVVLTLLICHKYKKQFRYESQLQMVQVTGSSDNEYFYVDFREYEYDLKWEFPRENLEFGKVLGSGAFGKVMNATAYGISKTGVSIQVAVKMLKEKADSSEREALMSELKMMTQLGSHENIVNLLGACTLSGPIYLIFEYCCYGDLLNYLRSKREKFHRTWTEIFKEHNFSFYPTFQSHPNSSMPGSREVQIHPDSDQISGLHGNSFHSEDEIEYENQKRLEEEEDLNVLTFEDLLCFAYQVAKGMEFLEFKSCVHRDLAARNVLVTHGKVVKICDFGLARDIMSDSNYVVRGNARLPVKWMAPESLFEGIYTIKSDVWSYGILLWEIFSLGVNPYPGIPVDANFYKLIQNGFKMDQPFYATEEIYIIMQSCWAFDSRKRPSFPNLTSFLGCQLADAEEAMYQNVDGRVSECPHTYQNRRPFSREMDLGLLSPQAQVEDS
The series is described as follows: FLT3 biochemical assay (ADP Hunter).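 Also: FLT3 enzymatic activity quantified through the ADP produced by the kinase reaction, detected with an ADP Hunter readout.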

Another series deals with tumor cell lines. In words: Combination assay (MTT in vitro cell proliferation, combination index). It is filed as cell-based. The settings on record: for EC50: read-out: Chemo EC50.
Where [2] appears, read: actual IC50 value in parentheses.
[3] abbreviates: Jeko-1, combined with lapatinib.
The mark [4] stands for this setting: SKMel19, combined with GDC-0879.
Setting [5] is: Homo sapiens, SK-MEL19, SKMel19, melanoma, chemotherapeutic alone.
The mark [6] stands for this setting: Homo sapiens, JeKo-1, Jeko-1, Mantle cell lymphoma, chemotherapeutic alone.
Where [7] appears, read: Homo sapiens, MV4-11, MV4:11, leukemia (AML), chemotherapeutic alone.
Where [8] appears, read: Homo sapiens, MIA PaCa-2, MiaPaca-2, pancreas, chemotherapeutic alone.

Read-outs that look alike come from different tables or passages of the source. A value given as a limit tells only on which side of the number the result lay.

T1 sequence (P11309 whole entry): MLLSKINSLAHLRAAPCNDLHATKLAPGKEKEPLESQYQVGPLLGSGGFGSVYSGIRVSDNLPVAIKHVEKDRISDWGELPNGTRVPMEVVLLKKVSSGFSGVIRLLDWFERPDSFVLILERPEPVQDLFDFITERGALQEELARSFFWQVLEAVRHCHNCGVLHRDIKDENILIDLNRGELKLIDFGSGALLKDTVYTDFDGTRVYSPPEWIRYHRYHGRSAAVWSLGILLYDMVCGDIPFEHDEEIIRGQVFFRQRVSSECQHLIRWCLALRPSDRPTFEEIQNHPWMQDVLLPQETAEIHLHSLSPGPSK
T2 sequence (Q9P1W9 whole entry): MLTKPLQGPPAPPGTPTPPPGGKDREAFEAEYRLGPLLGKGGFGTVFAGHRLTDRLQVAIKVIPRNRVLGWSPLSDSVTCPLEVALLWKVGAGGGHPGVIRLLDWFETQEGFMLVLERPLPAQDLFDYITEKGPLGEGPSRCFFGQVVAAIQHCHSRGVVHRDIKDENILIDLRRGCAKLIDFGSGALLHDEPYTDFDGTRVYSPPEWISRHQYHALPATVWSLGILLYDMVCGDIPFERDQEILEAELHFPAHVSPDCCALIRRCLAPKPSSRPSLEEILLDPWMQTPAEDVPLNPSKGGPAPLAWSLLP

For the molecule `FC(F)(F)Oc1cccc(-n2nnc3ccc(NCC4CCNCC4)nc32)c1` [2-21], in series [1], the “Stability in HLM” value worked out at 97.95%.
As usually defined, the IC50 is the concentration that inhibits the measured activity by half. Turning to `FC(F)(F)Oc1cccc(-n2nnc3ccc(NCC4CCN(Cc5ccncc5)CC4)nc32)c1` [2-25], the IC50 was 34 nM on PIM-1 (setting [2]); less than 100 nM at PIM-1 (semi-quantitative class); more than 1000 nM at PIM-2; 22 nM on PIM-3 (setting [2]); less than 100 nM on PIM-3 (semi-quantitative class); more than 1000 nM against FLT3 (semi-quantitative class). In addition, the “Combination Index (CI)” value came to 0.387 with tumor cell lines (setting [3]); 0.311 in the series on tumor cell lines (MV4:11, combined with GDC-0941); 0.87 with tumor cell lines (setting [4]). Besides, the Synergy result is “++ (0.3 < CI < 0.7 (++))” with tumor cell lines (setting [3]); “++ (0.3 < CI < 0.7 (++))” in the series with tumor cell lines (MV4:11, combined with GDC-0941); “+ (0.7 < CI < 1.2 (+))” with tumor cell lines (setting [4]).
On to `FC(F)(F)Oc1cccc(-n2nnc3ccc(N4CC5(CCNCC5)C4)nc32)c1` [2-49], for which the IC50 was 100 to 1000 nM on PIM-2, 100 to 1000 nM on PIM-3 (semi-quantitative class) and more than 1000 nM at FLT3 (semi-quantitative class). Also, the Synergy result in the series on tumor cell lines (NCIH23, combined with lapatinib) is recorded as “+ (0.7 < CI < 1.2 (+))”.
Take `CN1CCC(CNc2nc3c(cc2Cl)nnn3-c2cccc(OC(F)(F)F)c2)CC1` [2-55, [6-chloro-3-(3-trifluoromethoxy-phenyl)-3H-[1,2,3]triazolo[4,5-b]pyridin-5-yl]-(1-methyl-piperidin-4-ylmethyl)-amine]: the IC50 on PIM-1 (setting [2]) was 90 nM; at PIM-1 (semi-quantitative class), less than 100 nM; on PIM-2, more than 1000 nM; on PIM-3 (semi-quantitative class) it was more than 1000 nM; on FLT3 (semi-quantitative class) it was 100 to 1000 nM. Besides, the “Combination Index (CI)” value is 0.15 in the series on tumor cell lines (setting [3]) and 0.35 in the series on tumor cell lines (MV4:11, combined with GDC-0941). Besides, the Synergy entry in the series on tumor cell lines (setting [3]) is given as “+++ (0.1 < CI < 0.3 (+++))”; with tumor cell lines (MV4:11, combined with GDC-0941) it was “++ (0.3 < CI < 0.7 (++))”.
As for `O[C@H]1CC[C@@H](CNc2ccc3nnn(-c4cccc(OC(F)(F)F)c4)c3n2)CC1` [2-57], the IC50 on PIM-1 (semi-quantitative class) was less than 100 nM; on PIM-2 it was more than 1000 nM; at PIM-3 (semi-quantitative class), 100 to 1000 nM; at FLT3 (semi-quantitative class) it was more than 1000 nM.
Take `FC(F)(F)Oc1cccc(-n2nnc3ccc(N4CCOC5(CCNCC5)C4)nc32)c1` [2-58]: the IC50 on PIM-1 (setting [2]) was 85 nM; at PIM-1 (semi-quantitative class), less than 100 nM; on PIM-2 it was more than 1000 nM; at PIM-3 (semi-quantitative class), more than 1000 nM; at FLT3 (semi-quantitative class) it was more than 1000 nM.
Turning to `FC(F)(F)Oc1cccc(-n2nnc3ccc(N4CCCC5(CCNCC5)C4)nc32)c1` [2-59], the IC50 at PIM-1 (semi-quantitative class) is less than 100 nM; on PIM-2, more than 1000 nM; at PIM-3 (semi-quantitative class) it was 100 to 1000 nM; against FLT3 (semi-quantitative class), more than 1000 nM.
Turning to `FC(F)(F)Oc1cccc(-n2nnc3ccc(N4CCC5(CC4)CNCCO5)nc32)c1` [2-61], the IC50 on PIM-1 (setting [2]) was 74 nM; on PIM-1 (semi-quantitative class), less than 100 nM; at PIM-2 it was more than 1000 nM; at PIM-3 (semi-quantitative class), more than 1000 nM; at FLT3 (semi-quantitative class), more than 1000 nM.
As to `O[C@H]1CC[C@@H](Nc2ccc3nnn(-c4cccc(OC(F)(F)F)c4)c3n2)CC1` [2-68], the Synergy entry is listed as “++ (0.3 < CI < 0.7 (++))” in the series with tumor cell lines (setting [3]) and “++ (0.3 < CI < 0.7 (++))” with tumor cell lines (MV4:11, combined with GDC-0941).
As for `OC1CCN(c2ccc3nnn(-c4cccc(OC(F)(F)F)c4)c3n2)CC1` [2-70], the IC50 at PIM-1 (semi-quantitative class) was 100 to 1000 nM; on PIM-2, 100 to 1000 nM; at PIM-3 (semi-quantitative class), 100 to 1000 nM; against FLT3 (semi-quantitative class), more than 1000 nM.
As for `FC(F)(F)Oc1cccc(-n2nnc3cc(Cl)c(N4CCCC5(CCCN5)CC4)nc32)c1` (centres unmarked) [2-78], the IC50 on PIM-1 (semi-quantitative class) was less than 100 nM; at PIM-2 it was more than 1000 nM; on PIM-3 (setting [2]) it was 56 nM; at PIM-3 (semi-quantitative class), less than 100 nM; on FLT3 (setting [2]), 20 nM; at FLT3 (semi-quantitative class), less than 100 nM.
Turning to `FC(F)(F)Oc1cccc(-n2nnc3cc(Cl)c(NC4CC5(CCNCC5)C4)nc32)c1` [2-79], the IC50 is 33 nM on PIM-1 (setting [2]); less than 100 nM on PIM-1 (semi-quantitative class); more than 1000 nM on PIM-2; 40 nM at PIM-3 (setting [2]); less than 100 nM on PIM-3 (semi-quantitative class); 100 to 1000 nM against FLT3 (semi-quantitative class).
As for `CS(=O)(=O)NC1CCN(c2ccc3nnn(-c4cccc(OC(F)(F)F)c4)c3n2)CC1` [2-80], the IC50 on PIM-1 (semi-quantitative class) was 100 to 1000 nM; at PIM-2 it was more than 1000 nM; at PIM-3 (semi-quantitative class), 100 to 1000 nM; against FLT3 (semi-quantitative class) it was more than 1000 nM.
Take `FC(F)(F)c1cccc(-n2nnc3ccc(N4CCCC5(CCCN5)CC4)nc32)c1` (centres unmarked) [2-81]: the IC50 on PIM-1 (setting [2]) is 71 nM; on PIM-1 (semi-quantitative class), less than 100 nM; on PIM-2, more than 1000 nM; at PIM-3 (semi-quantitative class), 100 to 1000 nM; at FLT3 (semi-quantitative class) it was 100 to 1000 nM.
For `FC(F)(F)Oc1cccc(-n2nnc3cc(Br)c(NCC4CCNCC4)nc32)c1` [2-89], the IC50 at PIM-1 (setting [2]) was 11 nM; at PIM-1 (semi-quantitative class), less than 100 nM; on PIM-2 it was 100 to 1000 nM; on PIM-3 (setting [2]), 8 nM; at PIM-3 (semi-quantitative class), less than 100 nM; on FLT3 (setting [2]) it was 58 nM. On FLT3 (semi-quantitative class), this molecule registered an IC50 of less than 100 nM.
On to `COc1cc(NCC2CC3(CCNCC3)C2)nc2c1nnn2-c1cccc(N(C)C)c1` [2-94], for which the IC50 on PIM-1 (setting [2]) was 9 nM; at PIM-1 (semi-quantitative class) it was less than 100 nM; at PIM-2, more than 1000 nM; at PIM-3 (setting [2]), 56 nM; at PIM-3 (semi-quantitative class), less than 100 nM; against FLT3 (semi-quantitative class) it was more than 1000 nM.
Consider `COc1cc(NC2CC3(CCNCC3)C2)nc2c1nnn2-c1cccc(N(C)C)c1` [2-96], for which the IC50 at PIM-1 (setting [2]) is 32 nM; on PIM-1 (semi-quantitative class), less than 100 nM; at PIM-2 it was more than 1000 nM; at PIM-3 (setting [2]) it was 68 nM; on PIM-3 (semi-quantitative class), less than 100 nM; against FLT3 (semi-quantitative class), more than 1000 nM.
A word on the EC50: it is the concentration needed to bring the measured effect to its halfway point. Regarding `OCCn1cc(-c2ccc3c(c2)CC/C3=N\O)c(-c2ccncc2)n1` [GDC-0879, reference compound], the EC50 with tumor cell lines (setting [5]) is 300 nM.
As to `CS(=O)(=O)N1CCN(Cc2cc3nc(-c4cccc5[nH]ncc45)nc(N4CCOCC4)c3s2)CC1` [GDC-0941, reference compound], the EC50 in the series with tumor cell lines (Homo sapiens, A549, A549, lung adenocarcinoma, chemotherapeutic alone) is 6000 nM; in the series on tumor cell lines (setting [6]), 1000 nM; with tumor cell lines (setting [7]) it was 500 nM; in the series with tumor cell lines (Homo sapiens, NCI-H1975, NCIH1975, non small cell lung carcinoma, chemotherapeutic alone) it was 20000 nM; in the series on tumor cell lines (setting [5]), 500 nM; in the series on tumor cell lines (PC3, prostate cancer, chemotherapeutic alone), 10000 nM.
In the case of `Nc1ccn([C@@H]2O[C@H](CO)[C@@H](O)C2(F)F)c(=O)n1` [Gemcitabine, 4-amino-1-[3,3-difluoro-4-hydroxy-5-(hydroxymethyl)tetrahydrofuran-2-yl]-1H-pyrimidin-2-one, reference compound], the EC50 with tumor cell lines (setting [8]) was 50 nM.
As for `O=C(NOC[C@H](O)CO)c1ccc(F)c(F)c1Nc1ccc(I)cc1F` [PD-0325901, (R)—N-(2,3-dihydroxypropoxy)-3,4-difluoro-2-(2-fluoro-4-iodophenylamino)benz-amide, reference compound], the EC50 in the series with tumor cell lines is 1250 nM.
For `CS(=O)(=O)CCNCc1ccc(-c2ccc3ncnc(Nc4ccc(OCc5cccc(F)c5)c(Cl)c4)c3c2)o1` [lapatinib, N-(3-chloro-4-(3-fluorobenzyloxy)phenyl)-6-(5-((2-(methylsulfonyl)ethylamino)-methyl)furan-2-yl)quinazolin-4-amine, reference compound], the EC50 in the series with tumor cell lines (HTC116, colon carcinoma, chemotherapeutic alone) was 10000 nM; with tumor cell lines (setting [6]), 5000 nM; in the series with tumor cell lines (setting [8]) it was 20000 nM; with tumor cell lines (setting [7]), 5000 nM; in the series with tumor cell lines (Homo sapiens, NCI-H23, NCIH23, non small cell lung carcinoma, chemotherapeutic alone) it was 10000 nM.

The record behind these values is US20130065883A1 (Centro Nacional de Investigaceiones Oncologicas (CNIO), priority 2010, published 2013).
